The values that follow come from patent US20130157953A1, “TREATMENT OF CARDIAC CONDITIONS” (Zealand Pharma A/S, priority 2010, published 2013).

Numbered stars: 1 amine (or outer) side, 2 acyl side, 3 side chain; on linkers, the order of the positions; unused ones are H or OH. Square brackets hold non-standard residues; d marks the D form. Side chains are listed from the residue outwards. Ends that are not written are not given here. Peptide text beside a SMILES is read from it. * marks the point of attachment. γGlu = O=C(O)[C@H](CCC(=O)[*:2])N[*:1]; Palmitoyl = CCCCCCCCCCCCCCCC(=O)*; Aib = CC(C)(N)C(=O)O

Data set [1] relates to anesthetized male Sprague-Dawley rats. Put plainly: Inotropic effect in vivo in anaesthetized rats (stroke work, heart rate). Particulars: for heart rate / increase in strokework: i.v. infusion; for heart rate: 0.2 and 0.5 nmol/kg/min; for increase in strokework: at a given infusion rate (up to 2.5 nmol/kg/min), 40% set as end point.
Source text: The rats were exposed to 5% isoflurane in 1:2 N2O:O2 until anesthesia were established.
A catheter was inserted into the left femoral vein for drug administration and a pressure-volume catheter was inserted into the left ventricle via the right carotid artery. After instrumentation, isoflurane was delivered in pure O2 during the experiment.
The horizontal line marks 40% increase in stroke work, which was defined as the maximal increase that should be obtained during the experiment.
For another data set, the target named is T1, human GLP-1R (Homo sapiens, UniProt P43220).
T1 construct: expressed in transfected cells; host or cells: HEK293
T1 sequence (P43220 24-463): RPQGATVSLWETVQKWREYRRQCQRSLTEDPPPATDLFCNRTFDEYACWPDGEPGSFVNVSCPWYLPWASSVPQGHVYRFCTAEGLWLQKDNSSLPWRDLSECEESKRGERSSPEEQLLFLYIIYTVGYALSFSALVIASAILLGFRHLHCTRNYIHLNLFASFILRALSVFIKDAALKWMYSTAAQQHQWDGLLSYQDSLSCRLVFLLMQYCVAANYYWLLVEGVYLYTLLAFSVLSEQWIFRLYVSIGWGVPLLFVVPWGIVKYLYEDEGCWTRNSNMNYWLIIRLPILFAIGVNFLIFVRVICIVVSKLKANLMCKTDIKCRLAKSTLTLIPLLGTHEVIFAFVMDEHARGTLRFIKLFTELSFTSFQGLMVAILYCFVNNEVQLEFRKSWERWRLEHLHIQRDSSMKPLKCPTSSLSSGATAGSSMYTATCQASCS
Put plainly: cAMP formation in HEK293 cells expressing human GLP-1R. It counts as cell-based. Conditions: 15 min at 37° C. The text has this: (§1) Similarly, activation of the GLP-1 receptor by a GLP-1 agonist will stimulate cellular cAMP formation. Thus, production of cAMP in suitable cells expressing one of these two receptors can be used to monitor the relevant receptor activity.
(§2) The skilled person will be aware of suitable assay formats, and examples are provided below. […] (Where sequences of precursor proteins are referred to, it should of course be understood that assays may make use of the mature protein, lacking the signal sequence).
(§3) On the day of analysis, growth medium was removed and the cells washed once with 200 μl Tyrode buffer. Cells were incubated in […] containing increasing concentrations of test peptides, 100 μM IBMX, and 6 mM glucose for 15 min at 37° C. The reaction was stopped by addition of 25 μl 0.5 M HCl and incubated on ice for 60 min. The cAMP content was estimated using the FlashPlate® cAMP kit from Perkin-Elmer. EC50 values were estimated by computer aided curve fitting.
(Cyclic AMP is a second messenger, typically raised through Gs and lowered through Gi signalling.)

A further data set has as its target T2, human glucagon receptor (Homo sapiens, UniProt P47871).
T2 construct: expressed in transfected cells; host or cells: HEK293
Put plainly: cAMP formation in HEK293 cells expressing the human glucagon receptor. It counts as cell-based. Particulars: 15 min at 37° C., read-out: EC50 (nM) GuR.
Source text: as §1, §2, §3

In data set [2] the test system is isolated working hearts from control and insulin-resistant JCR:LA-cp rats. Put plainly: Inotropic effect and energy state in isolated working heart model. Also on record: species or system rat. Conditions: compared with vehicle perfused hearts.
Protocol: Following perfusions, high energy phosphate nucleotide concentrations were measured by high performance liquid chromatography (HPLC) (Ally, A and Park, G. Rapid determination of creatine, phosphocreatine, purine bases and nucleotides (ATP, ADP, AMP, GTP, GDP) in heart biopsies by gradient ion-pair reversed-phase liquid chromatography. Journal of Chromatography. 1992; 575: 19-27).

T2 sequence (P47871 26-477): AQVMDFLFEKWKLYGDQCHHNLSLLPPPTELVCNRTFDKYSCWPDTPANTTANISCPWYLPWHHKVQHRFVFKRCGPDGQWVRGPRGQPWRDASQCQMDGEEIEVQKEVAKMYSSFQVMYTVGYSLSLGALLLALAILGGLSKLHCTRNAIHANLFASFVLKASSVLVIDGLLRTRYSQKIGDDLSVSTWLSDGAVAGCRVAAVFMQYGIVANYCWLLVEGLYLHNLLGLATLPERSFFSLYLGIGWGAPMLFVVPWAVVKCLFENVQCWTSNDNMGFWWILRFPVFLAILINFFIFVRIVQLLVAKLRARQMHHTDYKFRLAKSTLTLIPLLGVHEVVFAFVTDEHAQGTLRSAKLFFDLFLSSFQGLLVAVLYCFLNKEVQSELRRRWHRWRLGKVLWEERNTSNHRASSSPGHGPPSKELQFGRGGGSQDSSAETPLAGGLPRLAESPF

As to `CC[C@H](C)[C@H](NC(=O)[C@H](Cc1ccccc1)NC(=O)[C@H](CC(=O)O)NC(=O)[C@H](CCCCN)NC(=O)[C@H](C)NC(=O)[C@H](CCCNC(=N)N)NC(=O)[C@H](CCCNC(=N)N)NC(=O)[C@H](CCC(=O)O)NC(=O)[C@H](CC(=O)O)NC(=O)[C@H](CC(C)C)NC(=O)[C@H](Cc1ccc(O)cc1)NC(=O)[C@H](CCCCN)NC(=O)[C@H](CO)NC(=O)[C@H](Cc1ccc(O)cc1)NC(=O)[C@H](CC(=O)O)NC(=O)[C@H](CO)NC(=O)[C@@H](NC(=O)[C@H](Cc1ccccc1)NC(=O)[C@@H](NC(=O)CNC(=O)[C@H](CCC(N)=O)NC(=O)[C@H](CO)NC(=O)[C@@H](N)Cc1c[nH]cn1)[C@@H](C)O)[C@@H](C)O)C(=O)N[C@@H](CCC(=O)O)C(=O)N[C@@H](Cc1c[nH]c2ccccc12)C(=O)N[C@@H](CC(C)C)C(=O)N[C@@H](CC(C)C)C(=O)N[C@@H](CO)C(=O)N[C@@H](C)C(N)=O` [Compound 35], the heart rate entry in data set [1] is listed as “tendency”.

As a reminder, the EC50 is the concentration giving half of the maximal effect. For the compound `CCCCCCCCCCCCCCCC(=O)N[C@@H](CCC(=O)NCCCC[C@H](NC(=O)[C@H](CO)NC(=O)[C@H](CC(=O)O)NC(=O)[C@H](CC(C)C)NC(=O)[C@H](Cc1ccc(O)cc1)NC(=O)[C@H](CCCCN)NC(=O)[C@H](CO)NC(=O)[C@H](Cc1ccc(O)cc1)NC(=O)[C@H](CC(=O)O)NC(=O)[C@H](CO)NC(=O)[C@@H](NC(=O)[C@H](Cc1ccccc1)NC(=O)[C@@H](NC(=O)CNC(=O)[C@H](CCC(N)=O)NC(=O)C(C)(C)NC(=O)[C@@H](N)Cc1c[nH]cn1)[C@@H](C)O)[C@@H](C)O)C(=O)N[C@@H](C)C(=O)N[C@@H](C)C(=O)N[C@@H](Cc1c[nH]cn1)C(=O)N[C@@H](CC(=O)O)C(=O)N[C@@H](Cc1ccccc1)C(=O)N[C@H](C(=O)N[C@@H](CCC(=O)O)C(=O)N[C@@H](Cc1c[nH]c2ccccc12)C(=O)N[C@@H](CC(C)C)C(=O)N[C@@H](CC(C)C)C(=O)N[C@@H](CCCNC(=N)N)C(=O)N[C@@H](C)C(N)=O)C(C)C)C(=O)O` [Compound 206] (H-H[Aib]QGTFTSDYSKYLDSK([γGlu-Palmitoyl])AAHDFVEWLLRA-NH2), the EC50 on human GLP-1R is 0.09 nM; on human glucagon receptor, 0.16 nM. Further, the “duration of strokework increase” value in data set [1] (after end of compound infusion, during final vehicle infusion) is “prolonged increase in strokework that outlasted the compound infusion”. Besides, in data set [1], the increase in strokework was 40%.

Take `CCCCCCCCCCCCCCCC(=O)N[C@@H](CCC(=O)NCCCC[C@H](NC(=O)[C@H](CCC(=O)O)NC(=O)[C@H](CC(=O)O)NC(=O)[C@H](CC(C)C)NC(=O)[C@H](Cc1ccc(O)cc1)NC(=O)[C@H](CCCCN)NC(=O)[C@H](CO)NC(=O)[C@H](Cc1ccc(O)cc1)NC(=O)[C@H](CC(=O)O)NC(=O)[C@H](CO)NC(=O)[C@@H](NC(=O)[C@H](Cc1ccccc1)NC(=O)[C@@H](NC(=O)CNC(=O)[C@H](CCC(N)=O)NC(=O)C(C)(C)NC(=O)[C@@H](N)Cc1c[nH]cn1)[C@@H](C)O)[C@@H](C)O)C(=O)N[C@@H](CCCNC(=N)N)C(=O)N[C@@H](C)C(=O)N[C@@H](CCCCN)C(=O)N[C@@H](CC(=O)O)C(=O)N[C@@H](Cc1ccccc1)C(=O)N[C@H](C(=O)N[C@@H](CCC(=O)O)C(=O)N[C@@H](Cc1c[nH]c2ccccc12)C(=O)N[C@@H](CC(C)C)C(=O)N[C@@H](CC(C)C)C(=O)N[C@@H](CO)C(=O)N[C@@H](C)C(N)=O)[C@@H](C)CC)C(=O)O` [Compound 263] (H-H[Aib]QGTFTSDYSKYLDEK([γGlu-Palmitoyl])RAKDFIEWLLSA-NH2): the EC50 is 0.1 nM on human GLP-1R and 0.16 nM on human glucagon receptor.

“H-HSQGTFTSDYSKYLDKRRAEDFVWLMNT-NH2 [Compound 256]”: the EC50 at human GLP-1R was 0.2 nM; at human glucagon receptor, 0.07 nM.

Regarding “H-HSQGTFTSDYSKYLDRARADDFVAWLKST-NH2 [Compound 12]”, in data set [2], the “energetic state of the hearts” value was “not significantly different from vehicle perfused hearts”.

On to “H-HSQGTFTSDYSKYLDSALAQDFVWLLNT-NH2 [Compound 255]”, for which the EC50 at human GLP-1R is 0.24 nM; on human glucagon receptor, 0.1 nM.

In the case of “H-HSQGTFTSDYSKYLDSRAAQDFVWLMNT-NH2 [Compound 246]”, the values for the EC50 at human GLP-1R and on human glucagon receptor were 0.3 nM and 0.05 nM, respectively.

Take “H-HSQGTFTSDYSKYLDSRHAQDFVWLMNT-NH2 [Compound 244]”: the EC50 on human GLP-1R turned out to be 0.5 nM; on human glucagon receptor it was 0.05 nM.

Take “H-HSQGTFTSDYSKYLDSRSAQDFVWLMNT-NH2 [Compound 245]”: the EC50 was 0.1 nM at human GLP-1R and 0.05 nM on human glucagon receptor.

In the case of “H-HSQGTFTSDYSKYLDSRYAQDFVWLMNT-NH2 [Compound 247]”, the EC50 came out at 0.3 nM at human GLP-1R and 0.1 nM on human glucagon receptor.

On to “H-HSQGTFTSDYSRYLDSRRAQDFVWLLNK-NH2 [Compound 254]”, for which the EC50 on human GLP-1R and at human glucagon receptor was 0.2 nM throughout.

As to “H-HSQGTFTSDYSRYLDSRRAQDFVWLLNT-NH2 [Compound 253]”, the EC50 came out at 0.2 nM on human GLP-1R and 0.1 nM on human glucagon receptor.

Turning to “HSQGTFTSDYSKYLDRARADDFVAWLERA [Compound 9]”, the increase in strokework in data set [1] is given as 40%.

Take “HSQGTFTSDYSKYLDSKAARDFVRWLKLA-NH2 [Compound 37]”: the heart rate result in data set [1] is on record as “tendency”.
